# Test results as given in ChEMBL document CHEMBL1201862, “PubChem BioAssay data set” (2004).
# Activity calls are given as the source filed them.
# Columns and labels:
# Ephrin type-A receptor 4 = Ephrin type-A receptor 4 (Mus musculus, UniProt Q03137); assay: EphA4 ligand-binding antagonists – biochemical, colorimetric, mouse EphA4, primary screen (AID 689); format: functional
# Cytochrome P450 1A2 = biological target: T1, Cytochrome P450 1A2 (Homo sapiens, UniProt P05177);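 also: PubChem cytochrome P450 panel assay, CYP1A2 panel member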
# T1 sequence (P05177 whole entry): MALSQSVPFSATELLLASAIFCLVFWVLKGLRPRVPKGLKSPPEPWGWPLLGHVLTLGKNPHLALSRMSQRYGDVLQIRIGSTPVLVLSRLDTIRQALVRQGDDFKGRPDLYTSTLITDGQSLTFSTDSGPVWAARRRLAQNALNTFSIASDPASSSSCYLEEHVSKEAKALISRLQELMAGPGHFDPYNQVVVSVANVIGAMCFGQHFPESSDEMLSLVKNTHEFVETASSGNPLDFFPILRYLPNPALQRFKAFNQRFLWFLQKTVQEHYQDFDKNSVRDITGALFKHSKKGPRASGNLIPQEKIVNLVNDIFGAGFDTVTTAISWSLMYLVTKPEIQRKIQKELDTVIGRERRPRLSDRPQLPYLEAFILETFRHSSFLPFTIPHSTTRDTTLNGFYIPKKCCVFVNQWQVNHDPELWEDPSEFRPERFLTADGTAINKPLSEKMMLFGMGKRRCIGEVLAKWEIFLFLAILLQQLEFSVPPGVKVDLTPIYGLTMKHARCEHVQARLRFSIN
# [1] = viability loss in THP-1 monocytes – THP-1 cells, cytotoxicity control for Vif-APOBEC3G degradation inhibitor project, dose response (AID 1117359); format: functional; conditions: THP-1
# [2] = biological target: T2, Rac GTPase-activating protein 1 (Homo sapiens, UniProt Q9H0H5); assay: blockers of MgcRacGAP-driven Rac1 GTP hydrolysis – biochemical, ADP Hunter fluorescence, primary and confirmatory, confirmation (AID 624330); format: functional
# T2 sequence (Q9H0H5 whole entry): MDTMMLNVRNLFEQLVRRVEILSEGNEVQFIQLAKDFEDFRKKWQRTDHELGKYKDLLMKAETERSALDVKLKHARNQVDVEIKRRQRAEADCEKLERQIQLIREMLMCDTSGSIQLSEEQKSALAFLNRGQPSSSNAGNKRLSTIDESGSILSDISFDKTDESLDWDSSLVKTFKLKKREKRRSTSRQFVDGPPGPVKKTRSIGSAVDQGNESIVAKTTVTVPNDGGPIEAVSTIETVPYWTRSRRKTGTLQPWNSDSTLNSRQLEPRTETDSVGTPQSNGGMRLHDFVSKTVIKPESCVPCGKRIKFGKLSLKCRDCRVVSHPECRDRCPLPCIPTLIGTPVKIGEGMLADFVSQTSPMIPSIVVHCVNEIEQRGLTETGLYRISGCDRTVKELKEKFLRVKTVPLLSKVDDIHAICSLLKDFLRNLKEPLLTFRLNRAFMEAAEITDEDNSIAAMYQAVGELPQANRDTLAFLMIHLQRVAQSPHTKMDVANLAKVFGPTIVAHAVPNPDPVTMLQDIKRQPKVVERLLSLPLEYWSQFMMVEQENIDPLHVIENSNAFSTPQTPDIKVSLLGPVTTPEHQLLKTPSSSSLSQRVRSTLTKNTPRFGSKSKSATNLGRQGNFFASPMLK
# [3] = Luminescent dose response cell-based high throughput screening assay for inhibitors of the Janus kinase 2 mutant JAK2V617F. [Related pubchem assays: 1446 (Primary screen.), 1521 (Confirmation assay.), 1486 (Counter screen.)]; format: functional
# [4] = biological target: T3, Replicative DNA helicase DnaB (Mycobacterium tuberculosis, UniProt P9WMR3); assay: DnaB intein splicing inhibitors, dose response, biochemical, cell-free fluorescence (AID 449749); format: functional
# T3 sequence (P9WMR3 whole entry): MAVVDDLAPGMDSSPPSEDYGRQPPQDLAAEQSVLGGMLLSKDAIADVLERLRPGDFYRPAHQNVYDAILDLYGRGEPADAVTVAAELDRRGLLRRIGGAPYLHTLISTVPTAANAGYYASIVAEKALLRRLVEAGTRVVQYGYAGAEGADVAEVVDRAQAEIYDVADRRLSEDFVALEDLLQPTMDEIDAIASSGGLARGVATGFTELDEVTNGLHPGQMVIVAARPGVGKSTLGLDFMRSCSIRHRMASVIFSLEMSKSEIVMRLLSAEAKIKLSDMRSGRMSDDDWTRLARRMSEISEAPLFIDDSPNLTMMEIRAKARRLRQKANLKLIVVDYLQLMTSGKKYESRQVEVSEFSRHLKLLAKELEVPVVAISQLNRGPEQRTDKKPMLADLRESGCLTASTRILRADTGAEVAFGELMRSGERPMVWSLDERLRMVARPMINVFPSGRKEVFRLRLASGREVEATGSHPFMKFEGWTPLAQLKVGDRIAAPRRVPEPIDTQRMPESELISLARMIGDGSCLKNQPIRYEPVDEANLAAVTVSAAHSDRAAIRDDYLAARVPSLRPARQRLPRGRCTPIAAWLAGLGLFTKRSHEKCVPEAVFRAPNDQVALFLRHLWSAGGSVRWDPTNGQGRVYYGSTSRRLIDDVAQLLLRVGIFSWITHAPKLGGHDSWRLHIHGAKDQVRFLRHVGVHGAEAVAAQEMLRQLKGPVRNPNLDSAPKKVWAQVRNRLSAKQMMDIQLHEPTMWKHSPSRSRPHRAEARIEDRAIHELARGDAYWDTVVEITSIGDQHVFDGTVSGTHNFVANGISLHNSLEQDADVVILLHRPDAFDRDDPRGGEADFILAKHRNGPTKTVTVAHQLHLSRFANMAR
# [5] = DRD fibroblast viability loss – cell-based, non-viral oncogenic, luminescence, dose response (AID 1934); format: functional; conditions: Homo sapiens
# [6] = biological target: T4, Microphthalmia-associated transcription factor (Homo sapiens, UniProt O75030); assay: reducers of TRPM1 reporter luminescence, concentration series – cell-based, SK-MEL-5, cherry-picked, set 3, MITF inhibitor project, dose response (AID 493073); format: functional;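 also: SK-MEL-5 melanoma cells with luciferase driven by the MITF target TRPM1 promoter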
# T4 sequence (O75030 whole entry): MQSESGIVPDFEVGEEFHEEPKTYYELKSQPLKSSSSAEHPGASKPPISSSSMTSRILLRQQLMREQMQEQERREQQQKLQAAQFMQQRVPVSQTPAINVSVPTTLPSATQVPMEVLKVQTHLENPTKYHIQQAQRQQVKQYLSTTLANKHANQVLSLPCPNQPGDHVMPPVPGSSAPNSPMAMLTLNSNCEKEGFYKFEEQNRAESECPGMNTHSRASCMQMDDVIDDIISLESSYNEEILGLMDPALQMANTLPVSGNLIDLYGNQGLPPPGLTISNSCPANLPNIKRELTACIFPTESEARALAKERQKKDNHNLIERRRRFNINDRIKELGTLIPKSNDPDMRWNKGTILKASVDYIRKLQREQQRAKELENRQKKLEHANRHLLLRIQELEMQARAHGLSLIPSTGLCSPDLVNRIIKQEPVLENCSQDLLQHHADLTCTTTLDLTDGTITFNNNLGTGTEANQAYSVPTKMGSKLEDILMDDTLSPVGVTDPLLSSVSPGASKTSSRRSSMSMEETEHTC
# [7] = general cell-killing toxicity readout – plate reader, dry powder samples, cytotoxicity control for PAX8 inhibitor project, dose response (AID 743021); format: functional, cell-based
# BJ [8] = assay: cells; format: functional, cell-based; conditions: Homo sapiens
# Paired box protein Pax-8 = Paired box protein Pax-8 (Homo sapiens, UniProt Q06710); assay: PAX8 transcriptional activity inhibition in RMG-I – RMG-I cells, luciferase, cherry-pick, dose response (AID 687027); format: functional, cell-based;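 also: luciferase reporter driven by Pax8 target thyroperoxidase promoter measured by SteadyGlo luminescence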
# Protein RecA = biological target: T5, Protein RecA (Mycobacterium tuberculosis, UniProt P9WHJ3); assay: Fluorescence Cell-Free Homogeneous Dose Retest to Identify Inhibitors of RecA-Intein Splicing Activity. [Related pubchem assays (depositor defined):AID2097, AID2223, AID489010, AID492950]; format: functional
# T5 sequence (P9WHJ3 whole entry): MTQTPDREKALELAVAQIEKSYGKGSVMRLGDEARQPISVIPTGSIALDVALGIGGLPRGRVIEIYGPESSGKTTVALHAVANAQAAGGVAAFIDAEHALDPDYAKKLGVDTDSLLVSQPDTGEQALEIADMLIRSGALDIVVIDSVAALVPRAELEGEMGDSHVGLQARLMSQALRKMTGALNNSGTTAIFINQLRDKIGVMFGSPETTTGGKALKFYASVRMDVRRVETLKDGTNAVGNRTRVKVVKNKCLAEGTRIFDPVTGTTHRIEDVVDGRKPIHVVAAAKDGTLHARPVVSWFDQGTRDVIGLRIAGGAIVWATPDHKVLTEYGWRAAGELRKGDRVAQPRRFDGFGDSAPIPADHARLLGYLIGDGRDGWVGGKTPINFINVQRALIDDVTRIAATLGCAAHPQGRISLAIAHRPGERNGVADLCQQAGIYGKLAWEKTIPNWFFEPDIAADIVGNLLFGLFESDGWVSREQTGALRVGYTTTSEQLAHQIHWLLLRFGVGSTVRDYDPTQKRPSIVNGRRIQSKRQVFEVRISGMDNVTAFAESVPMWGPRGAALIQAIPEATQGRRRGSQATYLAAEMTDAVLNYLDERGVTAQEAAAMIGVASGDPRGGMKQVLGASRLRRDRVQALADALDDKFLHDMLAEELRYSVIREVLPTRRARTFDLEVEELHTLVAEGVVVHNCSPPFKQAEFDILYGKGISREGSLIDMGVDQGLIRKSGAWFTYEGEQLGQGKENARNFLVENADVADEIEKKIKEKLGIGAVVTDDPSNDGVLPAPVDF
# BJ [9] = assay: BJ-TERT fibroblast viability loss – cell-based, RAS-independent, luminescence, dose response (AID 1933); format: functional; conditions: Homo sapiens
# BJ [10] = assay: growth inhibition of engineered Ras-driven BJ cells – cell-based, alamar blue fluorescence, cherrypicked samples, dose response (AID 2631); format: functional; conditions: Homo sapiens;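 also: confirmatory dose-response assay in RAS-dependent BJ fibroblasts engineered with TERT, LT and ST, with cytotoxicity read by fluorescence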
# BJ [11] = assay: BJ-TERT-LT-ST fibroblast viability loss – cell-based, RAS-independent, luminescence, dose response (AID 1935); format: functional; conditions: Homo sapiens;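 also: BJ fibroblasts immortalized with TERT plus LT and ST oncogenes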
# Sequence of Ephrin type-A receptor 4 (Q03137 whole entry): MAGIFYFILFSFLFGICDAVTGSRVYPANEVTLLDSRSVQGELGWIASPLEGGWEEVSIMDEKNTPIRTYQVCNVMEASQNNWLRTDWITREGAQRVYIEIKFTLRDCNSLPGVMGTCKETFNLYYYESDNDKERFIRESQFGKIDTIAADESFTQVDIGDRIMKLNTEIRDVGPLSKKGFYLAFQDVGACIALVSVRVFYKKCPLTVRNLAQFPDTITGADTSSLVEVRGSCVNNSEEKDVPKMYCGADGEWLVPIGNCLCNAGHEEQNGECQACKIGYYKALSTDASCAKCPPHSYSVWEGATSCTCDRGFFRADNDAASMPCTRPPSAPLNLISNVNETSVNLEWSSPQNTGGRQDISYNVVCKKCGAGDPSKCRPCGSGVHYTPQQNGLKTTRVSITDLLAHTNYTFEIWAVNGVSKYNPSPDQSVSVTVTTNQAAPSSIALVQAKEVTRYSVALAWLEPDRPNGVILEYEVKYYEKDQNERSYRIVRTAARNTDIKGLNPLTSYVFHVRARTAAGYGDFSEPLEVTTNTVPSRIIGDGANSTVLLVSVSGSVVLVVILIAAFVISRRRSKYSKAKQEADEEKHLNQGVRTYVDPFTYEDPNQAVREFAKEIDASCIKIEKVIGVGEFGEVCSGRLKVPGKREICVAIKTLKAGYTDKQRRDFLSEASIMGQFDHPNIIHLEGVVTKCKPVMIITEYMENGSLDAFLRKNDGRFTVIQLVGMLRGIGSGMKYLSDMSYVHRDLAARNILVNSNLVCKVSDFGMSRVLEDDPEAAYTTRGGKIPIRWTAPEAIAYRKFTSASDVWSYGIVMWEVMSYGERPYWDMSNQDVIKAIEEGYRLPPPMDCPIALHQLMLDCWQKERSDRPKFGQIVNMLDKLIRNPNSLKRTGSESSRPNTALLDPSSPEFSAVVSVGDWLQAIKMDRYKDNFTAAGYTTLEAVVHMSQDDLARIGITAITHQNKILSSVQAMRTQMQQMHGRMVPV
# Sequence of Paired box protein Pax-8 (Q06710 whole entry): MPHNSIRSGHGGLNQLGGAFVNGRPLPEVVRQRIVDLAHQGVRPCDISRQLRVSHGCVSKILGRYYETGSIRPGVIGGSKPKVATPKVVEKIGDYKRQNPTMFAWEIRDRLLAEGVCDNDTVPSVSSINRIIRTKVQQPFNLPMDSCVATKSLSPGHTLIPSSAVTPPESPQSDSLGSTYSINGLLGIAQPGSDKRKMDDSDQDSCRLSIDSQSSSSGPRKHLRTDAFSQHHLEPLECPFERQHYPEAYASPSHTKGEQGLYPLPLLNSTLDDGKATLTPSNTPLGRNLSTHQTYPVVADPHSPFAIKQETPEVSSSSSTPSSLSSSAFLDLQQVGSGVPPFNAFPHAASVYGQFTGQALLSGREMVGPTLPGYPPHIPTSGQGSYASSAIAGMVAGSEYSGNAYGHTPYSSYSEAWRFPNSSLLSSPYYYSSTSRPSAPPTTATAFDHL
Structure (SMILES),IC50 (Ephrin type-A receptor 4),AC50 (Cytochrome P450 1A2),CC50 [1],IC50 [2],IC50 [3],AC50 [4],EC50 [5],AC50 [6],AC50 [7],EC50 (BJ [8]),AC50 (Paired box protein Pax-8),EC50 (Protein RecA),EC50 (BJ [9]),EC50 (BJ [10]),EC50 (BJ [11])
Brc1ccc(-c2nnc(-c3cccc(Br)c3)o2)cc1,> 100 µM (not active),0.316 µM (inconclusive),,,,,,,,,,,,,
O=C(/C=C/c1ccc(O)c(O)c1)c1ccc(S(=O)(=O)N2CCCCCC2)cc1,,,26.3 µM (active),82 µM (active),0.835 µM (active),,,,,,,,,,
COc1ccccc1N(C(=O)CCl)c1cn(C(C)=O)c2ccccc12,,,,,1.2 µM (active),12.8 µM (active),3.11 µM (active),8.82 µM (active),3.66 µM (active),5.64 µM (active),1.56 µM (active),0.846 µM (active),5.21 µM (inconclusive),1.52 µM (active),> 150 µM (inconclusive)
